Measured values from patent US20080009418A1, “Selective Inhibitors” (Alchemia LTD., priority 2004, published 2008).

What was measured:
Human κ-Opioid (KOP) = target: T1, Human κ-Opioid (KOP) (Homo sapiens, UniProt P41145); assay: Radioligand binding, human κ-opioid (KOP) membranes, filtration, [3H]-Diprenorphine; details: compound at 10 μM; for A2: inhibition of radioligand binding: human KOP membranes
T1 construct: purchased Perkin Elmer Biosignal
Description: (§1) Cloned receptor membrane preparations from Perkin Elmer Biosignal™ were used in radioligand binding assays.
(§2) A1 Human δ-opioid (DOP), A2 Human κ-Opioid (KOP), A3 Human Melanocortin (MC3), A4 Human Melanocortin (MC4), A5 Human melanocortin (MC5), A6 Human melanin-concentrating hormone (MCH1), A7 Human μ-opioid (MOP), A8 Human neurokinin (NK1), A9 Human neuropeptide Y (NPY-Y1), A10 Human opioid (ORL1) A11 Mouse urotensin (mUR2)
(§3) Screening experiments were performed in either a 50 μl filtration or 25 μl FlashPlate assay format using the following protocol:
(§4) 44 μl membranes diluted in buffer, 1 μl of compound diluted in DMSO, 5 μl of radioligand diluted in binding buffer.
(§5) The day prior to performing the experiment 50 μl DMSO was added to each well of the compound plates to yield compounds at a final concentration of 10 mM. Daughter plates were then created by diluting the compounds further in DMSO to a concentration of 0.5 mM. The mother plates were frozen immediately.
(§6) Thaw membranes on ice then dilute membranes in binding buffer at a concentration of 1 Unit per well. Dilute radio-ligand to 10 times the final concentration in binding buffer. Add 44 μl of diluted membranes to each well of the deep-well plate. Add 1 μl of DMSO (total value, 5 wells), reference ligand (non-specific value, 3 wells) or compound to the corresponding wells in the deep-well plate. Initiate the reaction by adding 5 μl of radioligand to each well and vortex gently. Incubate at room temperature for 1 hour. During incubation, pre-incubate the Multiscreen Harvest plates in 0.3% PEI. Filter over pre-soaked Multiscreen Harvest plates using a Tomtec Harvester. Wash 9 times with 500 μl of cold 50 mM Tris-HCl pH 7.4 at 4° C. and air-dry for 30 minutes at room temperature under a fume hood. Apply a bottom seal to the Multiscreen Harvest plates. Add 25 μl of MicroScint-0 to each well. Apply TopSeal-A to the plate. Count for 30 seconds per well on TopCount Microplate Scintillation and Luminescence Counter (PerkinElmer) using a count delay of 60 seconds.
(§7) Percentage inhibition was calculated using the following formula: [formula]

Human δ-opioid (DOP) = target: T2, Human δ-opioid (DOP) (Homo sapiens, UniProt P41143); assay: Radioligand binding, human δ-opioid (DOP) membranes, FlashPlate, [3H]-Bremazocine; details: compound at 10 μM; for A1: inhibition of radioligand binding: human DOP membranes
T2 construct: purchased Perkin Elmer Biosignal
T2 sequence (P41143 whole entry): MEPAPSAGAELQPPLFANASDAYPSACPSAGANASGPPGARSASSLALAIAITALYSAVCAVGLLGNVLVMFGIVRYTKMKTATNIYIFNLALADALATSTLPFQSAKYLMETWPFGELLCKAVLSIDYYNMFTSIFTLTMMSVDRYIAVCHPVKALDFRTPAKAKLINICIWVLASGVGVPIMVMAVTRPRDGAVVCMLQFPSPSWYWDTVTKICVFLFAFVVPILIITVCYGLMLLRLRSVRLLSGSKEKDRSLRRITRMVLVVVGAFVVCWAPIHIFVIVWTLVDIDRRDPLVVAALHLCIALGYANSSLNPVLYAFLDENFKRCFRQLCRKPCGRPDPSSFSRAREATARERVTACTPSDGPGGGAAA
Description: as §1, §2, §3
(§8) 19.5 μl buffer, 0.5 μl of compound diluted in DMSO, 5 μl of radioligand diluted in binding buffer.
as §5
(§9) Immobilize membranes into FlashPlate microplates using PerkinElmer BioSignal's proprietary coating procedure. Dilute radioligand to 5× the final concentration in binding buffer. Add 19.5 μl buffer to each well of the FlashPlate. Add 0.5 μl of DMSO (total value, 5 wells), reference ligand (non-specific value, 3 wells) or compound to the corresponding wells in the FlashPlate microplate. Initiate the reaction by adding 5 μl of radioligand to each well. Apply TopSeal-A onto FlashPlate microplates. Incubate at room temperature for 1 hour in the dark. Count for 30 seconds per well on TopCount Microplate Scintillation and Luminescence Counter (PerkinElmer) using a count delay of 60 seconds.
as §7

Human melanocortin (MC5) = target: T3, Human melanocortin (MC5) (Homo sapiens, UniProt P33032); assay: Radioligand binding, human melanocortin MC5 membranes, FlashPlate, [125I]-NDP-αMSH; details: compound at 10 μM; for A5: inhibition of radioligand binding: human MC5 membranes
T3 construct: purchased Perkin Elmer Biosignal
T3 sequence (P33032 whole entry): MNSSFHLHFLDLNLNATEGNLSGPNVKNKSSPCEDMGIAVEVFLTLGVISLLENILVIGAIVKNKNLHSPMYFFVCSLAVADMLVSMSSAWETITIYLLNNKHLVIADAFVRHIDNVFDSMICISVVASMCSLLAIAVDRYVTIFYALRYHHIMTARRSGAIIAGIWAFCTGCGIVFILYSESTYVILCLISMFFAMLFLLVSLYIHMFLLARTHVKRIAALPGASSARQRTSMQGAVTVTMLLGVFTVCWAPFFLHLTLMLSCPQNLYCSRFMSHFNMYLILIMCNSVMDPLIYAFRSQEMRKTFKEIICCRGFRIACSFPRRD
Description: as §1, §2, §3, §8, §5, §9, §7

Human μ-opioid (MOP) = target: T4, Human μ-opioid (MOP) (Homo sapiens, UniProt P35372); assay: Radioligand binding, human μ-opioid (MOP) membranes, FlashPlate, [3H]-Naloxone; details: compound at 10 μM; for A7: inhibition of radioligand binding: human MOP membranes
T4 construct: purchased Perkin Elmer Biosignal
T4 sequence (P35372 whole entry): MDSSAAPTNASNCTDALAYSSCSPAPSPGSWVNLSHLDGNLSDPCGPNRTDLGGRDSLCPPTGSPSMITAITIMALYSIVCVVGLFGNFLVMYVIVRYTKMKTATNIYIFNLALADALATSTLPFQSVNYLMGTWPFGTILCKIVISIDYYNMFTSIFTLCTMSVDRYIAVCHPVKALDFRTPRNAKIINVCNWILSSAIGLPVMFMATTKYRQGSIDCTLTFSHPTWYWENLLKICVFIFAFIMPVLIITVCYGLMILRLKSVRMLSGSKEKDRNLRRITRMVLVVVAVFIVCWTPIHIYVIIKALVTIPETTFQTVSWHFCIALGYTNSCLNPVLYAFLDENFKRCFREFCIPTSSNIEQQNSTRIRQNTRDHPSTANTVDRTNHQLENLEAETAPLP
Description: as §1, §2, §3, §8, §5, §9, §7

Mouse urotensin (mUR2) = target: T5, Mouse urotensin (mUR2) (Mus musculus, UniProt Q8VIH9); assay: Radioligand binding, mouse urotensin mUR2 membranes, FlashPlate, [125I]-Urotensin II; details: compound at 10 μM; for A11: inhibition of radioligand binding: mouse mUR2 membranes
T5 construct: purchased Perkin Elmer Biosignal
T5 sequence (Q8VIH9 1-385): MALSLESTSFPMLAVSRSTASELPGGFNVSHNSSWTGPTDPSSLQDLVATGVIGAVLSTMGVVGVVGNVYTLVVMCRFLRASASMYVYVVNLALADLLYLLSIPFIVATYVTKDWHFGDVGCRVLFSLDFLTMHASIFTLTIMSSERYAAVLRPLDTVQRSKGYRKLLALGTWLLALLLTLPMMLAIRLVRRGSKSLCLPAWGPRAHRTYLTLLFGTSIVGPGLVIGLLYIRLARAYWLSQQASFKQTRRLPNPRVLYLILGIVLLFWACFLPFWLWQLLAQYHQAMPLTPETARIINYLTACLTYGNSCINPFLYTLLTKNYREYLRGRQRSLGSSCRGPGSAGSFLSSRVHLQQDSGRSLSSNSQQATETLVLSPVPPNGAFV
Description: as §1, §2, §3, §8, §5, §9, §7

[1] = target: T6, Human neuropeptide Y (NPY-Y1) (Homo sapiens, UniProt P25929); assay: Radioligand binding, human neuropeptide Y NPY-Y1 membranes, FlashPlate, [125I]-PYY; details: compound at 10 μM
T6 construct: purchased Perkin Elmer Biosignal
T6 sequence (P25929 1-384): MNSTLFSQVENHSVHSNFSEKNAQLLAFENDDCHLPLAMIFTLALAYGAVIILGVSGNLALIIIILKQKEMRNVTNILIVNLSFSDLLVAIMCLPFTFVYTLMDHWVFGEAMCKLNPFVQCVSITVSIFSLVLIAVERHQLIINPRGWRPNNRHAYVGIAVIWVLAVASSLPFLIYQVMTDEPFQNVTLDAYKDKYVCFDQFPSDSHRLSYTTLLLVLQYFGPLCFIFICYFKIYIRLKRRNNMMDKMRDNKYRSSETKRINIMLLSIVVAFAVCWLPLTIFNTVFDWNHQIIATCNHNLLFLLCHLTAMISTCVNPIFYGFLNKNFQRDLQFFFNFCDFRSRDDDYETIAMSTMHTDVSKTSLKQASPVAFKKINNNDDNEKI
Description: as §1, §2, §3, §8, §5, §9, §7

Human neurokinin (NK1) = target: T7, Human neurokinin (NK1) (Homo sapiens, UniProt P25103); assay: Radioligand binding, human neurokinin NK1 membranes, filtration, [125I]-Substance P; details: compound at 10 μM; for A8: inhibition of radioligand binding: human NK1 membranes
T7 construct: purchased Perkin Elmer Biosignal
T7 sequence (P25103 whole entry): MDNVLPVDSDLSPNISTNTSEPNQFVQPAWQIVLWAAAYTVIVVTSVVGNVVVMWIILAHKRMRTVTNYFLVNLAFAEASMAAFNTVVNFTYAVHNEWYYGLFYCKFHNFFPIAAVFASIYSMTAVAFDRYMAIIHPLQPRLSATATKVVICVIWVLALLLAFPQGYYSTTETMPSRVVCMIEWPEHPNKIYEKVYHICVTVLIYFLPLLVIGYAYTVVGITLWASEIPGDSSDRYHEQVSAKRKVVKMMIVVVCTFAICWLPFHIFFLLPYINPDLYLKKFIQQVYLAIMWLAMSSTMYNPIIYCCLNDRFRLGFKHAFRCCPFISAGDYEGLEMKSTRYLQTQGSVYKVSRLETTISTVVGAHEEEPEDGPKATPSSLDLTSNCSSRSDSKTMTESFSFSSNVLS
Description: as §1, §2, §3, §4, §5, §6, §7

Human opioid (ORL1) = target: T8, Human opioid (ORL1) (Homo sapiens, UniProt P41146); assay: Radioligand binding, human opioid ORL1 membranes, FlashPlate, [125I]-Nociceptin; details: compound at 10 μM
T8 construct: purchased Perkin Elmer Biosignal
T8 sequence (P41146 whole entry): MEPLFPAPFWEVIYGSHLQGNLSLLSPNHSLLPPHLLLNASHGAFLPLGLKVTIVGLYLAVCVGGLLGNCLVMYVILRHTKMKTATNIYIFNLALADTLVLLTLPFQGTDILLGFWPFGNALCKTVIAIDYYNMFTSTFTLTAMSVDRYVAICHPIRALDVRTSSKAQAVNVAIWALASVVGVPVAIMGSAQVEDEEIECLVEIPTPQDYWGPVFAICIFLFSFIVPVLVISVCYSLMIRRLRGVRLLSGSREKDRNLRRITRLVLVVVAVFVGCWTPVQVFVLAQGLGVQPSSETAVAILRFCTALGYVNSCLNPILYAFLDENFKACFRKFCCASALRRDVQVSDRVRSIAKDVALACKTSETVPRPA
Description: as §1, §2, §3, §8, §5, §9, §7

[2] = target: T9, Human melanin-concentrating hormone (MCH1) (Homo sapiens, UniProt Q99705); assay: Radioligand binding, human melanin-concentrating hormone MCH1 membranes, FlashPlate, [125I]-S36057; details: compound at 10 μM; for A6: inhibition of radioligand binding: [125I]-S36057, human MCH1 membranes
T9 construct: purchased Perkin Elmer Biosignal
T9 sequence (Q99705 whole entry): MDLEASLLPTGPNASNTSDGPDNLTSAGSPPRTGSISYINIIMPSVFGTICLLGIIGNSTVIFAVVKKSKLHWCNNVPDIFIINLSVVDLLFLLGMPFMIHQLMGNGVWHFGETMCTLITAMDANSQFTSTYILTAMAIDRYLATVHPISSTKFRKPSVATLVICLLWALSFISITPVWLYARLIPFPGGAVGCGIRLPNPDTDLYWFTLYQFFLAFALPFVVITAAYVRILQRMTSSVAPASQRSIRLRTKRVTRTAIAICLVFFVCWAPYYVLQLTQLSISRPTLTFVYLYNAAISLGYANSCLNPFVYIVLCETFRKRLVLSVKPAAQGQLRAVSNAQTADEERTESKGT
Description: as §1, §2, §3, §8, §5, §9, §7

Human Melanocortin (MC3) = target: T10, Human Melanocortin (MC3) (Homo sapiens, UniProt P41968); assay: Radioligand binding, human melanocortin MC3 membranes, FlashPlate, [125I]-NDP-αMSH; details: compound at 10 μM; for A3: inhibition of radioligand binding: human MC3 membranes
T10 construct: purchased Perkin Elmer Biosignal
T10 sequence (P41968 whole entry): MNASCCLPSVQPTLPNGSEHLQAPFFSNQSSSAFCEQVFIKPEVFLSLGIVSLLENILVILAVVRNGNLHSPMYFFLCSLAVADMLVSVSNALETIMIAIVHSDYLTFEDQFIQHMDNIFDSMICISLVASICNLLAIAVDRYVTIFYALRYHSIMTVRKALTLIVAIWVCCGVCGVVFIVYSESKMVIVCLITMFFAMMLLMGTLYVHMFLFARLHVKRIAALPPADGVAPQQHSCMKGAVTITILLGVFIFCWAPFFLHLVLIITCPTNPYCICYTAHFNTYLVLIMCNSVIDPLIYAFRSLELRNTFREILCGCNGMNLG
Description: as §1, §2, §3, §8, §5, §9, §7

Human Melanocortin (MC4) = target: T11, Human Melanocortin (MC4) (Homo sapiens, UniProt P32245); assay: Radioligand binding, human melanocortin MC4 membranes, FlashPlate, [125I]-NDP-αMSH; details: compound at 10 μM; for A4: inhibition of radioligand binding: human MC4 membranes
T11 construct: purchased Perkin Elmer Biosignal
T11 sequence (P32245 whole entry): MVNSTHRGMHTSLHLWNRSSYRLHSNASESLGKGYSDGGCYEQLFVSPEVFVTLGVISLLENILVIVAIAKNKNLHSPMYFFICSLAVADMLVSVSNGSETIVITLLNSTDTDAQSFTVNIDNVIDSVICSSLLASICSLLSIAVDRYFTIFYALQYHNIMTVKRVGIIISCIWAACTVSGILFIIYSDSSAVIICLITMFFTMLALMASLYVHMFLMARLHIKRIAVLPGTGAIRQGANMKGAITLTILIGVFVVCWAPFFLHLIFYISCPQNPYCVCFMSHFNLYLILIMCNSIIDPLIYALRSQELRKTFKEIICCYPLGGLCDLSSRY
Description: as §1, §2, §3, §8, §5, §9, §7

[3] = [125I]-PYY, human NPY-Y1 membranes
[4] = [125I]-Nociceptin, human ORL1 membranes

T1 sequence (P41145 whole entry): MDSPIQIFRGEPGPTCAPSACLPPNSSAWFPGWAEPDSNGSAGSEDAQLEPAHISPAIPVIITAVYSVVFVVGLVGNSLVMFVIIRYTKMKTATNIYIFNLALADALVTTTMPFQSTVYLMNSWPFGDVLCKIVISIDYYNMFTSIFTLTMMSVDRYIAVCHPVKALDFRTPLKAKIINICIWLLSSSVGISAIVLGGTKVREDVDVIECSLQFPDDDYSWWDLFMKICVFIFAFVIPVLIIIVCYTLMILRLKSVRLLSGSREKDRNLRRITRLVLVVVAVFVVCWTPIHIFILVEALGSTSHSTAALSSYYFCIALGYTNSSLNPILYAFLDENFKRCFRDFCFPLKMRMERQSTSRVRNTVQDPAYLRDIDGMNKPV

Structure (SMILES)	A2: inhibition of radioligand binding (Human κ-Opioid (KOP); [3H]-Diprenorphine)	A1: inhibition of radioligand binding (Human δ-opioid (DOP); [3H]-Bremazocine)	A5: inhibition of radioligand binding (Human melanocortin (MC5); [125I]-NDP-αMSH)	A7: inhibition of radioligand binding (Human μ-opioid (MOP); [3H]-Naloxone)	A11: inhibition of radioligand binding (Mouse urotensin (mUR2); [125I]-Urotensin II)	A9: inhibition of radioligand binding [1, 3]	A8: inhibition of radioligand binding (Human neurokinin (NK1); [125I]-Substance P)	A10: inhibition of radioligand binding (Human opioid (ORL1); [4])	A6: inhibition of radioligand binding [2]	A3: inhibition of radioligand binding (Human Melanocortin (MC3); [125I]-NDP-αMSH)	A4: inhibition of radioligand binding (Human Melanocortin (MC4); [125I]-NDP-αMSH)	further results
N=C(N)NCC(=O)NC1C(OCc2ccc(-c3ccccc3)cc2)OC(COCc2ccc(Cl)cc2)C(O)C1OCc1ccc(Cl)cc1 (centres unmarked) [compound 401]	− (“−” indicates less than 50% inhibition at 10 μM)	− (“−” indicates less than 50% inhibition at 10 μM)	+ (“+” indicates greater than 50% inhibition at 10 μM)	− (“−” indicates less than 50% inhibition at 10 μM)	− (“−” indicates less than 50% inhibition at 10 μM)	− (“−” indicates less than 50% inhibition at 10 μM)	+ (“+” indicates greater than 50% inhibition at 10 μM)	+ (“+” indicates greater than 50% inhibition at 10 μM)	+ (“+” indicates greater than 50% inhibition at 10 μM)	+ (“+” indicates greater than 50% inhibition at 10 μM)	+ (“+” indicates greater than 50% inhibition at 10 μM)	
COC[C@H]1OC(OCc2ccc3ccccc3c2)[C@H](NC(=O)CNC(=N)N)[C@@H](OCc2ccc(-c3ccccc3)cc2)[C@@H]1O (some centres unmarked) [compound 15]												A2 radioligand binding inhibition (Human κ-Opioid (KOP); human κ-opioid (KOP) membranes): − (“−” indicates less than 50% inhibition at 10 μM); A1 radioligand binding inhibition (Human δ-opioid (DOP); human δ-opioid (DOP) membranes): − (“−” indicates less than 50% inhibition at 10 μM); A5 radioligand binding inhibition (Human melanocortin (MC5); human melanocortin MC5 membranes): + (“+” indicates greater than 50% inhibition at 10 μM); A7 radioligand binding inhibition (Human μ-opioid (MOP); human μ-opioid (MOP) membranes): + (“+” indicates greater than 50% inhibition at 10 μM); A11 radioligand binding inhibition (Mouse urotensin (mUR2); mouse urotensin mUR2 membranes): − (“−” indicates less than 50% inhibition at 10 μM); A9 radioligand binding inhibition ([1]; human NPY-Y1 membranes): − (“−” indicates less than 50% inhibition at 10 μM); A8 radioligand binding inhibition (Human neurokinin (NK1); human neurokinin NK1 membranes): − (“−” indicates less than 50% inhibition at 10 μM); A10 radioligand binding inhibition (Human opioid (ORL1); human ORL1 membranes): − (“−” indicates less than 50% inhibition at 10 μM); A6 radioligand binding inhibition ([2]; human MCH1 membranes): + (“+” indicates greater than 50% inhibition at 10 μM); A3 radioligand binding inhibition (Human Melanocortin (MC3); human melanocortin MC3 membranes): − (“−” indicates less than 50% inhibition at 10 μM); A4 radioligand binding inhibition (Human Melanocortin (MC4); human melanocortin MC4 membranes): + (“+” indicates greater than 50% inhibition at 10 μM)
CO[C@H]1[C@H](O)[C@@H](COCc2cccc(O)c2)OC(OCc2ccccc2)[C@@H]1NC(=O)CCCN (some centres unmarked) [compound 153]												A2 radioligand binding, percentage inhibition (Human κ-Opioid (KOP); [3H]-Diprenorphine): − (“−” indicates less than 50% inhibition at 10 μM); A1 radioligand binding, percentage inhibition (Human δ-opioid (DOP); [3H]-Bremazocine): − (“−” indicates less than 50% inhibition at 10 μM); A5 radioligand binding, percentage inhibition (Human melanocortin (MC5); [125I]-NDP-αMSH): − (“−” indicates less than 50% inhibition at 10 μM); A7 radioligand binding, percentage inhibition (Human μ-opioid (MOP); [3H]-Naloxone): − (“−” indicates less than 50% inhibition at 10 μM); A11 radioligand binding, percentage inhibition (Mouse urotensin (mUR2); [125I]-Urotensin II): − (“−” indicates less than 50% inhibition at 10 μM); A9 radioligand binding, percentage inhibition ([1]; [125I]-PYY): − (“−” indicates less than 50% inhibition at 10 μM); A8 radioligand binding, percentage inhibition (Human neurokinin (NK1); [125I]-Substance P): + (“+” indicates greater than 50% inhibition at 10 μM); A10 radioligand binding, percentage inhibition (Human opioid (ORL1); [125I]-Nociceptin): − (“−” indicates less than 50% inhibition at 10 μM); A6 radioligand binding, percentage inhibition ([2]; [125I]-S36057): − (“−” indicates less than 50% inhibition at 10 μM); A3 radioligand binding, percentage inhibition (Human Melanocortin (MC3); [125I]-NDP-αMSH): − (“−” indicates less than 50% inhibition at 10 μM); A4 radioligand binding, percentage inhibition (Human Melanocortin (MC4); [125I]-NDP-αMSH): − (“−” indicates less than 50% inhibition at 10 μM)
N=C(N)NCCC(=O)NC1C(OCc2ccc(-c3ccccc3)cc2)OC(COCc2ccccc2)C(O)C1OCc1ccc2ccccc2c1 (centres unmarked) [compound 412]	− (“−” indicates less than 50% inhibition at 10 μM)	− (“−” indicates less than 50% inhibition at 10 μM)	+ (“+” indicates greater than 50% inhibition at 10 μM)	− (“−” indicates less than 50% inhibition at 10 μM)	− (“−” indicates less than 50% inhibition at 10 μM)	− (“−” indicates less than 50% inhibition at 10 μM)	+ (“+” indicates greater than 50% inhibition at 10 μM)	+ (“+” indicates greater than 50% inhibition at 10 μM)	+ (“+” indicates greater than 50% inhibition at 10 μM)	+ (“+” indicates greater than 50% inhibition at 10 μM)	+ (“+” indicates greater than 50% inhibition at 10 μM)	
